Measurements published in patent US10669287B2, “Curcumin-boron complex and pharmaceutical containing same” (JAPAN SCIENCE AND TECHNOLOGY AGENCY, priority 2016, dated 2020).
Read-outs that look alike come from different tables or passages of the source.

Assays:
Aβ1-42 [1] = target: T1, Aβ1-42 (Homo sapiens, UniProt P05067); test: Degree of oxygenation of pre-aggregated Aβ1-42 (MALDI-TOF MS), Test Example 10; type: biochemical; details: pre-aggregated Aβ1-42 20 μM, catalyst 2 μM, 37° C., 30 minutes; for Degree of oxygenation (%) of Aβ42 (λ = 660 nm): phosphate buffer pH 7.4, 660 nm; for Degree of oxygenation (%) of Aβ42 (λ = 780 nm): phosphate buffer pH 7.4, 780 nm (14 mW)
T1 construct: phosphate buffer (pH 7.4)/cell culture solution (containing 0.1% horse serum) (1:3) containing Aβ1-42 (10 μM)
Protocol: Aβ1-42 isopeptide (concentration: 250 μM in 0.1% aqueous solution of trifluoroacetic acid), angiotensin IV (200 μM aqueous solution), Met-enkephalin (200 μM aqueous solution), and somatostatin (200 μM aqueous solution) were added to a phosphate buffer or phosphate buffer saline (pH 7.4) (with 0.1 M aqueous solution of sodium hydroxide, as necessary) so that a final peptide concentration of 20 μM or 40 μM (pH 7.4) was reached. Before being subjected to oxygenation reaction, the Aβ1-42 solution was incubated at 37° C. for 1 to 3 hours. The phosphate buffer containing 40 μM of Aβ was diluted with a Dulbecco's modified Eagle's medium (DMEM, Life Technologies) containing 0.1% horse serum and buffered with 25 mM of 4-(2-hydroxyethyl)-1-piperazineethanesulfonic acid (HEPES).
Solutions of the compounds with a final concentration of 2 μM were used for evaluation of oxygenation of Aβ1-42. Solutions of the compounds with a final concentration of 5 μM were used for evaluation of peptide selectivity. Each mixture was subjected to light irradiation with an LED (wavelength: 500, 660, or 780 nm) at a distance of approximately 5 to 10 cm at room temperature. A control group without light irradiation was additionally prepared. Reaction was analyzed through monitor analysis with a MALDI-TOF MS. Degree of oxygenation was determined as a ratio: degree of oxygenation (%)=(total of MS intensities for n[O] adducts)/(MS intensity for native+total of MS intensities for n[O] adducts)×100. Aliquots of each reaction solution were desalted with a ZipTip U-C18 (Merck Millipore), as necessary, before mass spectrometry.
a: A phosphate buffer (pH 7.4) solution containing pre-aggregated Aβ1-42 (20 μM, incubated at 37° C. for 3 hours) and a catalyst (2 μM) was subjected to light irradiation (wavelength: 660 nm) at 37° C. for 30 minutes. Thereafter, the reaction mixture was analyzed by using a MALDI-TOF MS.
a: A phosphate buffer (pH 7.4) containing pre-aggregated Aβ1-42 (20 μM, obtained through incubation at 37° C. for 3 hours) and a catalyst (2 μM) were subjected to light irradiation at 780 nm (14 mW) at 37° C. for 30 minutes. The reaction mixture was analyzed by using a MALDI-TOF MS.

[2] = Maximum wavelength λmax of photocatalysts; type: physicochemical
Aβ1-42 [3] = target: T1, Aβ1-42; test: Oxygenation under mouse skin, Test Example 7; type: in vivo; details: microtube with Aβ1-42 20 μM aggregated 3 hours, implanted in back skin, LED 780 nm, 30 minutes
Protocol: A microtube containing a phosphate buffer containing Aβ1-42 (20 μM, aggregated in advance for 3 hours) and the compound E or a compound 3 [9-(6-bromo-3-methyl-1,3-benzotriazol-3-ium-2-yl)-julolidine] was implanted in the back skin of a wild mouse, and light irradiation with an LED lamp was performed from the outside of the mouse body at a wavelength of 780 nm for 30 minutes (FIG. 10). As a control experiment, another microtube containing the same components (Aβ1-42 (20 μM, aggregated in advance for 3 hours) and the compound E or the compound 3) was directly subjected to light irradiation outside of the mouse body. The reaction mixture was analyzed by using a MALDI-TOF MS, and then subjected to ZipTip treatment for analysis. The percentage of oxygenation ratio was calculated from the percentage of oxygenation ratio under the skin and the oxygenation ratio outside of the skin “[oxygenation ratio under mouse skin/oxygenation ratio outside of mouse skin]×100”.

[4] = Stability of catalyst in neutral phosphate buffer without or under light irradiation (HPLC), Test Example 5; type: physicochemical; details: under light irradiation (660 nm)
Protocol: A neutral phosphate buffer containing a catalyst was incubated without light irradiation or under light irradiation (660 nm), and thereafter ethanol containing benzyl alcohol (as an internal standard) was added thereto, and analysis was performed by using HPLC.

PC 12 cells [5] = type: cell-based
Protocol: Rat pheochromocytoma PC 12 cells were suspended with DMEM containing 5% horse serum and 10% fetal bovine serum, seeded in a poly-D-lysine-coated 96-well plate at a concentration of 10,000 cells per well, and incubated in a 5% carbon dioxide atmosphere at 37° C. for 3 days. After the solvent was removed, the cells were washed with 150 μL of serum-free DMEM, and DMEM (75 μL) containing 0.1% horse serum was added thereto. Thereafter, the 96-well plate was incubated in a 5% carbon dioxide atmosphere at 37° C. for 1 day for use in oxygenation reaction. In oxygenation reaction, the compound E (100 μM dimethyl sulfoxide solution) was added to a phosphate buffer saline containing Aβ (aggregated in advance for 3 hours, 40 μM) and 25 μL of the above cell solution (final concentration of Aβ: 10 μM, final concentration of compound E: 1 μM). The mixture was irradiated with an LED (wavelength: 780 nm) at a distance of approximately 5 cm at 37° C. for 5 minutes. The cells were incubated in a 5% carbon dioxide atmosphere at 37° C. for 48 hours. The cell viability was measured by using the Cell Count Reagent SF (NACALAI TESQUE, INC., Kyoto, Japan) with WST-8 (2-(2-methoxy-4-nitrophenyl)-3-(4-nitrophenyl)-5-(2,4-disulfophenyl)-2H-tetrazolium).
b: LC50 (dark) indicates the toxicity of a compound itself, and LC50 (light) indicates the phototoxicity of a compound. The PC 12 cells were placed in dark or subjected to photocatalytic treatment under light irradiation (wavelength: 660 nm), and incubated at 37° C. for 5 minutes, and then in a 5% carbon dioxide atmosphere at 37° C. for 48 hours, for which the cell viability was analyzed (n=5, mean±SEM).
b: The PC 12 cells were treated together with a photocatalyst (1 μM) at 37° C. for 5 minutes in dark or under light irradiation (wavelength: 780 nm), and thereafter the cell viability was analyzed (n=3, mean±SEM).

Aβ1-42 [6] = target: T1, Aβ1-42; test: In vitro oxygenation experiment using Aβ1-42 as a substrate (MALDI-TOF MS), Test Example 1; type: biochemical; details: test compound 1 μM, Aβ1-42 10 μM, 37° C.
Protocol: An in vitro oxygenation experiment using Aβ1-42 as a substrate was conducted to confirm that each of the inventive compounds actually have Aβ oxygenation activity. A test compound (1 μM in each case) was added to phosphate buffer (pH 7.4)/cell culture solution (containing 0.1% horse serum) (1:3) containing Aβ1-42 (10 μM), and incubated under LED irradiation (wavelength: 660 nm, 730 nm) at 37° C., and then the reaction was tracked by using a mass spectrometer (MALDI-TOF MS). The native Aβ1-42 and the Na^+ adduct were mainly observed before light irradiation. After light irradiation, an ion peak indicating the presence of the oxygenated form was observed over time (FIG. 1, FIG. 2).

PC 12 cells [7] = test: Cytotoxicity under light irradiation, WST-8 cell viability, Test Example 2; type: cell-based, rat; details: LED 660 nm, 10 mW, 5 minutes, then 48 hours
Protocol: A culture medium for rat adrenal medulla-derived pheochromocytoma PC 12 cells (purchased from RIKEN, Japan) seeded on a poly-D-lysine-coated 96-well plate was replaced with 75 μL of a Dulbecco's modified Eagle's medium containing 0.1% horse serum, and the culture was incubated in a 5% CO2 atmosphere at 37° C. for 1 day, and 25 μL of a phosphate buffer saline (pH 7.4) containing a inventive compound was then added thereto. Thereafter, the mixed solution was incubated under LED irradiation (wavelength: 660 nm, 10 mW) (without light irradiation for dark) at 37° C. for 5 minutes. Further, the cell culture plate containing the reaction solution was incubated in a 5% CO2 atmosphere at 37° C. for 48 hours. Finally, the Cell Count Reagent SF (10 μL: purchased from NACALAI TESQUE, INC.) containing WST-8 was added, and the culture was incubated in a 5% CO2 atmosphere at 37° C. for 3 hours, and thereafter the cell viability was determined from the absorbance at 450 nm (reference wavelength: 655 nm).

T1 sequence (P05067 672-713): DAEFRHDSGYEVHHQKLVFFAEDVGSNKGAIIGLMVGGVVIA

| Structure (SMILES) | Degree of oxygenation (%) of Aβ42 (λ = 660 nm) (Aβ1-42 [1]) | Maximum wavelength λmax (nm) ([2]; Table 1) | stability of catalyst (ranking) [4] | Degree of oxygenation (%) of Aβ42 (λ = 780 nm) (Aβ1-42 [1]) [%] | Maximum wavelength λmax (nm) ([2]; Table 2) | toxicity under light irradiation (ranking) (PC 12 cells [7]) | other results |
| --- | --- | --- | --- | --- | --- | --- | --- |
| CN(C)c1ccc(/C=C/C2=CC(=C/C=C3C=CC(=[N+](C)C)C=C3)/O[B-](F)(F)O2)cc1 [CRANAD-2, (T-4)-[(1E,6E)-1,7-bis[4-(dimethylamino)phenyl]-1,6-heptadiene-3,5-dionato-κO^3,κO^5]difluoroboron, reference compound] | trace | 579 | – | – | – | – | – |
| C[n+]1c2ccc(Br)cc2nn1-c1cc2c3c(c1)CCCN3CCC2 [Compound 3, 9-(6-bromo-3-methyl-1,3-benzotriazol-3-ium-2-yl)-julolidine, reference compound] | trace | 456 | – | – | – | – | percentage of oxygenation ratios [oxygenation ratio under mouse skin/oxygenation ratio outside of mouse skin]×100 (Aβ1-42 [3]): 12% |
| O=C(O)CCCCCN1CCCc2cc(/C=C/C3=[O+][B-](F)(C(F)(F)F)OC(/C=C/c4cc5c6c(c4)CCCN6CCC5)=C3Br)ccc21 (stereo not drawn) [Compound I] | – | – | stability was higher | 52 | 645 | – | CC50 (PC 12 cells [5]; PC 12 cells in dark, 37° C., 5 minutes, n=3, mean±SEM, Table 2, read-out: LC50 (dark)): > 10000 nM; CC50 (PC 12 cells [5]; PC 12 cells, light irradiation 780 nm, 37° C., 5 minutes, n=3, mean±SEM, Table 2, read-out: LC50 (light)): 1670 nM; oxygenation of Aβ1-42 under light irradiation (Aβ1-42 [6]; LED irradiation at both 660 nm and 730 nm): oxygenation of the Aβ proceeded |
| CN(C)c1ccc(/C=C/C2=C(Br)C(/C=C/c3ccc4c(c3)CCCN4CCCCCC(=O)O)=[O+][B-](F)(C(F)(F)C(F)(F)F)O2)cc1 (stereo not drawn) [Compound J] | 79% | 622 | higher in the order of BFCF3 (compound K)<BFCF2CF3 (compound J) | 41 | 620 | higher in the order of the compound J, the compound K, and the compound L | – |
| CN(C)c1ccc(/C=C/C2=C(Br)C(/C=C/c3ccc4c(c3)CCCN4CCCCCC(=O)O)=[O+][B-](F)(F)O2)cc1 [Compound L] | 73% | 623 | stability was the lowest | – | – | higher in the order of the compound J, the compound K, and the compound L | CC50 (PC 12 cells [5]): 24 nM |
| O=C(O)CCCCCN1CCCc2cc(/C=C/C3=[O+][B-](F)(C(F)(F)C(F)(F)C(F)(F)F)OC(/C=C/c4cc5c6c(c4)CCCN6CCC5)=C3Br)ccc21 (stereo not drawn) [Compound S] | – | – | – | 37 | 633 | – | CC50 (PC 12 cells [5]): > 10000 nM |
| CN(C)c1ccc(/C=C/C2=C(I)C(/C=C/c3ccc4c(c3)CCCN4CCCCCC(=O)O)=[O+][B-](F)(C(F)(F)F)O2)cc1 (stereo not drawn) [M] | – | – | – | – | – | iodine provides more reduced toxicity than in the case of bromine | oxygenation of Aβ1-42 under light irradiation (Aβ1-42 [6]; LED irradiation at 730 nm): oxygenation of the Aβ proceeded |
